Reference: paper PMC5187884, “In Vitro Antitumor Active Gold(I) Triphenylphosphane Complexes Containing 7-Azaindoles” (International Journal of Molecular Sciences, 2016)

What was measured:
[1] = system: A2780 human ovarian carcinoma cell line; test: In vitro cytotoxicity testing (MTT assay), A2780; assay type: cell-based; conditions: 24 h exposure time; for IC50: MTT assay, read-out: IC50 ± SD, A2780
Experimental: Human A2780 ovarian carcinoma, A2780R cisplatin-resistant ovarian carcinoma and MRC-5 normal fibroblast cell lines were supplied by the European Collection of Cell Cultures (ECACC). The cell lines were cultured, according to the supplier´s instructions, in RPMI-1640 medium supplemented with 10% of fetal calf serum, 1% of 2 mM glutamine, and 1% penicillin/streptomycin. All cell lines were grown as adherent monolayers at 37 °C and 5% CO2 in a humidified atmosphere.

[2] = system: A2780R cisplatin-resistant ovarian carcinoma cell line; test: In vitro cytotoxicity testing (MTT assay), A2780R; assay type: cell-based, human; conditions: 24 h exposure time; for IC50: MTT assay, read-out: IC50 ± SD, A2780R
Experimental: (§1) The cell lines were cultured, according to the supplier´s instructions, in RPMI-1640 medium supplemented with 10% of fetal calf serum, 1% of 2 mM glutamine, and 1% penicillin/streptomycin. All cell lines were grown as adherent monolayers at 37 °C and 5% CO2 in a humidified atmosphere.

[3] = system: MRC-5 normal fibroblast cell line; test: In vitro cytotoxicity testing (MTT assay), MRC-5; assay type: cell-based, human; conditions: 24 h exposure time; for IC50: MTT assay, read-out: IC50 ± SD, MRC5
Experimental: as §1

A2780 cells = system: A2780 cells; parameters: method as in PMID 22322463; conditions: cited from earlier work
[4] = system: A2780 cells with acquired resistance to cisplatin; parameters: method as in PMID 22322463; conditions: cited from earlier work
[5] = system: A549 human lung carcinoma cells; parameters: method as in PMID 24763048; conditions: as compared with untreated cells; cited from earlier work
U266 human myeloma cells = system: U266 human myeloma cells; parameters: method as in PMID 20542334; conditions: cited from earlier work
[6] = Solution behaviour in water/DMF mixture (1H and 31P-NMR); assay type: physicochemical; conditions: 50% DMF-d7/50% D2O, ca. 1 mM, 48 h at ambient temperature
Experimental: Only one set of ^1H-NMR signals (e.g., C3–H signal at 6.50 ppm) and one ^31P-NMR signal (34.8 ppm) were detected on the fresh solution, and no changes were observed even after 48 h of standing at ambient temperature. The positions of the ^1H and ^31P-NMR signals detected on the solution of 8 in the 50% DMF-d7/50% D2O mixture were different from those of free H2Me4Claza (C3–H signal at 6.32 ppm; Figure 3), PPh3 (^31P-NMR signal at −4.7 ppm), the oxidized triphenylphosphane (O=PPh3; ^31P-NMR signal at 32.4 ppm) or [AuCl(PPh3)] (^31P-NMR signal at 34.2 ppm) dissolved in the same mixture of solvents (Figure S6).
(§2) Complex 8 and [AuCl(PPh3)] […] Similar solutions were prepared with 1 or 5 mol equivs of GSH, Cys, or BSA. ^1H and ^31P-NMR spectra were recorded at different time points over 48 h at 300 K. The obtained ^1H-NMR spectra were calibrated against the residual signal of water found at 4.75 ppm, while the ^31P-NMR spectra were referenced as described above.

[7] = biological target: T1, bovine serum albumin (BSA) (Bos taurus, UniProt P02769); test: Interaction study with bovine serum albumin (NMR); conditions: 50% DMF-d7/50% D2O
T1 construct: purchased Sigma-Aldrich Co. (Prague, Czech Republic) and Fisher-Scientific Co. (Pardubice, Czech Republic)
T1 sequence (P02769 25-607): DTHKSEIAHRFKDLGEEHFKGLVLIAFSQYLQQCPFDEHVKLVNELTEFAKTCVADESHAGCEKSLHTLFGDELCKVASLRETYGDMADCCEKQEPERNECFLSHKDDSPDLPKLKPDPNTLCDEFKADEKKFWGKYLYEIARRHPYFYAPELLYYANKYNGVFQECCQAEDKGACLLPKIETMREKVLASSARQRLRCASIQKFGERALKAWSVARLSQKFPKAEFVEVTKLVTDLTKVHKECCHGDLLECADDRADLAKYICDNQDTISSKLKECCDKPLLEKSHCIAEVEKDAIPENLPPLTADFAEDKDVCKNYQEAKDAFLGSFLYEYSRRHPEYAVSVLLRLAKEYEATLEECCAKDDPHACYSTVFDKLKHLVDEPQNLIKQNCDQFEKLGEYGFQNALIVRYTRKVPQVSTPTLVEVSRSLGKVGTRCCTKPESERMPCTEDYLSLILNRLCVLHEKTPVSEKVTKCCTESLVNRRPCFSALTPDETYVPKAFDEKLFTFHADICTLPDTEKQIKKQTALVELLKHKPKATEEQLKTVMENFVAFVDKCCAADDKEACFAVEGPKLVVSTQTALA
Experimental: An interaction of 8 with bovine serum albumin (BSA) resulted immediately in a white turbidity, which was subsequently removed by centrifugation (13,000 rpm for 3 min; Mini Spin, Eppendorf AG, Hamburg, Germany). The ^1H-NMR spectrum recorded on the obtained supernatant contained the signals of the released N-donor ligand, with the signal positions (e.g., C3–H signal at 6.36 ppm) being consistent with those detected for free H2Me4Claza in the same mixture of solvents (Figure S8). No signals were detected in the ^31P-NMR spectra recorded on the mentioned supernatant.
as §2

[8] = system: A2780 human ovarian carcinoma cells; test: Cell cycle analysis by flow cytometry (PI/RNase staining); assay type: cell-based; conditions: A2780 cells treated at IC50 concentration, 24 h; for S cell cycle phase population: control 9.0% ± 1.9%; for G2 cell cycle phase population: control 24.0% ± 2.6%; for G0/G1 cell cycle phase population: control 66.3% ± 3.8%
Experimental: The obtained results are depicted in Figure 4.
A2780 cells (1.0 × 10^6 per well) were pre-incubated in a six-well plate for 24 h, as described above. […] After 24 h, floating cells were collected and attached cells were harvested using trypsin/EDTA in PBS. Total cells were washed twice with PBS and fixed in 70% ethanol. Cells were resuspended in PBS and DNA staining was achieved by a solution of propidium iodide (PI) supplemented with RNase A (30 min, 25 °C, in the dark). After that, the cells were washed (PBS), resuspended (PBS), and DNA content was measured using flow cytometry (CytoFlex, Beckman Coulter, Brea, CA, USA) detecting emission of DNA-bound PI (maximum at 617 nm) after excitation at 535 nm. The data were analysed using CytExpert^TM software (Beckman Coulter).

[9] = Stability in DMF-d7 (1H and 31P-NMR); assay type: physicochemical; conditions: 1H-NMR and 31P-NMR, ambient temperature

| Compound | in vitro cytotoxicity against A2780 compared with cisplatin [1] | IC50 [1] | RF = resistance factor (IC50(A2780R)/IC50(A2780)) [2] | IC50 [2] | SI = selectivity index (IC50(MRC5)/IC50(A2780)) [3] | IC50 [3] | other results |
| --- | --- | --- | --- | --- | --- | --- | --- |
| Brc1c[n]([Au][P](c2ccccc2)(c2ccccc2)c2ccccc2)c2ncccc12 [Complex 3, [Au(3Braza)(PPh3)]] | comparable | 23.3 ± 3.4 µM | 0.9 | 21.3 ± 0.8 µM | 1.2 | 27.3 ± 1.7 µM | – |
| CC[PH](CC)(CC)[Au][S][C@@H]1O[C@H](COC(C)=O)[C@@H](OC(C)=O)[C@H](OC(C)=O)[C@H]1OC(C)=O [auranofin, triethylphosphane-(2,3,4,6-tetra-O-acetyl-β-D-thiopyranosato)gold(I) complex] | – | – | – | – | – | – | potency in vitro against A2780 cells relative to cisplatin (A2780 cells): ca. three-fold higher; RF (resistance factor) [4]: ca. 0.9; sub-G1 cell cycle phase population increase [5]: > 13%; cell cycle arrest (U266 human myeloma cells): G0/G1 cell cycle arrest |
| Clc1c[n]([Au][P](c2ccccc2)(c2ccccc2)c2ccccc2)c2ncccc12 [Complex 2, [Au(3Claza)(PPh3)]] | comparable | 22.4 ± 5.7 µM | 1.0 | 21.7 ± 0.8 µM | 1.4 | 31.4 ± 4.9 µM | – |
| Cc1cc2c(Cl)ccnc2[n]1[Au][P](c1ccccc1)(c1ccccc1)c1ccccc1 [Complex 8, [Au(2Me4Claza)(PPh3)]] | more than seven times higher | 2.8 ± 0.7 µM | – | 8.9 ± 3.8 µM | 9.6 | 26.9 ± 3.6 µM | hydrolytic stability [6]: hydrolytically stable; interaction with BSA [7]: replaces the N-donor ligand 2Me4Claza; solubility in water (Solubility): low solubility in water |
| c1ccc([P]([Au][n]2ccc3cccnc32)(c2ccccc2)c2ccccc2)cc1 [Complex 1, [Au(aza)(PPh3)]] | – | 3.8 ± 1.1 µM | 1.2 | 4.4 ± 0.8 µM | 2.0 | 7.7 ± 1.7 µM | cell cycle modification (phase arrest) [8]: G2-arrest; S cell cycle phase population [8]: 7.2% ± 0.9%; G2 cell cycle phase population [8]: 44.0% ± 2.3%; G0/G1 cell cycle phase population [8]: 46.0% ± 2.8%; solubility in the used medium (Solubility; cell culture medium, dilution of 50 mM DMF stock): less soluble |
| N.N.[Cl][Pt][Cl] [Cisplatin, cisplatin, reference compound] | – | 20.3 ± 2.3 µM | – | > 50 µM | – | > 50 µM | cell cycle modification (phase arrest) [8]: S-arrest; S cell cycle phase population [8]: 44.8% ± 2.9% |
| Ic1c[n]([Au][P](c2ccccc2)(c2ccccc2)c2ccccc2)c2ncccc12 [Complex 4, [Au(3Iaza)(PPh3)]] | – | 3.5 ± 0.4 µM | – | 11 ± 4.7 µM | 8.3 | 29.2 ± 5.9 µM | – |
| Clc1c[n]([Au][P](c2ccccc2)(c2ccccc2)c2ccccc2)c2ncc(Br)cc12 [Complex 6, [Au(3Cl5Braza)(PPh3)]] | comparable | 22.9 ± 2.3 µM | 0.6 | 13.8 ± 2.1 µM | 1.2 | 26.5 ± 3.7 µM | – |
| Brc1cnc2c(c1)c(I)c[n]2[Au][P](c1ccccc1)(c1ccccc1)c1ccccc1 [Complex 7, [Au(3I5Braza)(PPh3)]] | comparable | 20.2 ± 2.5 µM | 1.1 | 22.1 ± 0.3 µM | 1.4 | 27.3 ± 2.6 µM | – |
| [Cl][Au].c1ccc(P(c2ccccc2)c2ccccc2)cc1 [[AuCl(PPh3)], chlorido-triphenylphosphanegold(I) complex] | – | – | – | – | – | – | stability in DMF-d7 [9]: low stability |
| Brc1cnc2c(cc[n]2[Au][P](c2ccccc2)(c2ccccc2)c2ccccc2)c1 [Complex 5, [Au(5Braza)(PPh3)]] | – | 3.1 ± 0.5 µM | – | 14.4 ± 3.3 µM | 8.4 | 26 ± 4.2 µM | cell cycle modification (phase arrest) [8]: G2-arrest; S cell cycle phase population [8]: 9.1% ± 2.1%; G2 cell cycle phase population [8]: 30.4% ± 2.9%; G0/G1 cell cycle phase population [8]: 58.1% ± 5.8% |
